Data from patent publication US20170176477A1 (Metanomics Health GmbH, priority 2012, published 2017).
Like-named read-outs stand apart in the source and are kept apart here.

Columns and labels:
[1] = rat, in vivo
Procedure: (§1) Animals accessed feed and water ad libitum.
(§2) For mass spectrometry-based MxP™ Broad Profiling analyses samples were extracted by a proprietary method yielding a lipid and polar fraction which were used for GC-MS (gas chromatography-mass spectrometry) and LC-MS/MS (liquid chromatography-MS/MS) analyses, respectively. For GC-MS analytics the samples were sequentially derivatized before measurement and the non-polar fraction was treated with methanol under acidic conditions to yield the fatty acid methyl esters derived from both free fatty acids and hydrolyzed complex lipids. The non-polar and polar fractions were further derivatized before GC-MS analysis (Roessner et al., Technical advance: simultaneous analysis of metabolites in potato tuber by gas chromatography-mass spectrometry. Plant J. 2000; 23:131-42). In LC-MS/MS analysis a metanomics proprietary technology was applied which allows target and high sensitivity MRM (Multiple Reaction Monitoring) profiling in parallel to full scan analyses (patent WO2003073464). For LC-MS analysis, both fractions were reconstituted in appropriate solvent mixtures. HPLC (high-performance liquid chromatography) was performed on reversed phase separation columns. Data were normalized by the corresponding median of reference samples which derived from a pool formed from aliquots of all samples to account for inter- and intra-instrumental variation. Therefore, pool-normalized semi-quantitative metabolite data were obtained.

[2] = Metabolite profiling of plasma (GC-MS and LC-MS/MS) of rats treated with APAP vs. vehicle; conditions: for plasma metabolite in treated (1250 mg/kg) vs. untreated animals: FIG. 1, rats, 1250 mg/kg APAP vs. vehicle, most obvious at 6 and 24 hours; for 1250 mg vs. 0 mg (6 h) Ratio / 1250 mg vs. 0 mg (3 d) Ratio / 1250 mg vs. 0 mg (7 d) Ratio: rat plasma metabolite level, treated with 1250 mg/kg APAP vs. untreated, ANOVA; for 1250 mg vs. 0 mg (3 d) Ratio: 3 days; for 1250 mg vs. 0 mg (7 d) Ratio: 7 days
Procedure: as §1, §2

[3] = tested on: mouse liver tissue; conditions: cited from earlier work
[4] = tested on: mouse/rat liver tissue; conditions: after administration of hepatotoxic doses of carbon tetrachloride; cited from earlier work

Molecule | differences between the test and the control samples [1] | plasma metabolite in treated (1250 mg/kg) vs. untreated animals [2] | 1250 mg vs. 0 mg (6 h) Ratio [2] | 1250 mg vs. 0 mg (3 d) Ratio [2] | 1250 mg vs. 0 mg (7 d) Ratio [2] | plasma metabolite in treated (1250 mg/kg) vs. untreated animals [1] | tissue levels of putrescine ([3]; 18 hours after administration of acetaminophen) | putrescine in mouse liver tissue after treatment with acetaminophen ([3]; mouse liver tissue) | tissue levels of putrescine ([3]; tissue samples obtained after 6 and 12 hours) | putrescine in mouse/rat liver tissue [4]
CC(=O)Nc1ccc(O)cc1 [APAP, N-(4-hydroxyphenyl)acetamide, reference compound] | no statistically significant differences |  |  |  |  |  |  |  |  | 
NCCCCN [Putrescine, Butane-1,4-diamine] |  |  |  |  |  | increased | Elevated | increased | no elevated putrescine levels | increased

Second part, led by results:

differences between the test and the control samples [1] | plasma metabolite in treated (1250 mg/kg) vs. untreated animals [2] | 1250 mg vs. 0 mg (6 h) Ratio [2] | 1250 mg vs. 0 mg (3 d) Ratio [2] | 1250 mg vs. 0 mg (7 d) Ratio [2] | plasma metabolite in treated (1250 mg/kg) vs. untreated animals [1] | Molecule | tissue levels of putrescine ([3]; 18 hours after administration of acetaminophen) | putrescine in mouse liver tissue after treatment with acetaminophen ([3]; mouse liver tissue) | tissue levels of putrescine ([3]; tissue samples obtained after 6 and 12 hours) | putrescine in mouse/rat liver tissue [4]
 | increased | 1.52 | 1.06 | 1.07 |  | NCCOP(=O)(O)O [O-Phosphoethanolamine, o-phosphoethanolamine] |  |  |  | 
 | increased | 1.28 | 1.04 | 1.02 |  | O[C@H]1[C@H](O)[C@@H](O)[C@H](O)[C@@H](O)[C@H]1O [myo-Inositol, lipid fraction, myo-inositol] |  |  |  | 
 | decreased | 0.95 | 1.10 | 1.02 |  | Lysophosphatidylcholine (C18:1) |  |  |  | 
